Data published in paper PMC7412237, “Competition NMR for Detection of Hit/Lead Inhibitors of Protein–Protein Interactions” (Molecules, 2020).

Assays:
[1] = target: T1, (N66A)PD-1/PD-L1 complex (Homo sapiens, UniProt Q9NZQ7); assay: w-AIDA-NMR on (N66A)PD-1/PD-L1 complex; format: binding
T1 construct: made in house; host or cells: E. coli BL21 (DE3)

[2] = target: T2, PD-1/PD-L1 complex (Homo sapiens, UniProt Q9NZQ7); settings: ref [59]; cited from earlier work
T2 construct: made in house; host or cells: E. coli BL21 (DE3)

[3] = system: effector T cells; settings: T cells attenuated by soluble and membrane-bound PD-L1; ref [59]; cited from earlier work
[4] = target: T3, MdmX (Homo sapiens, UniProt O15151); assay: Fluorescence polarization competition assay (displacement of P2 peptide), MdmX; settings: read-out: Ki towards MdmX; FP assay
T3 sequence (O15151 18-111): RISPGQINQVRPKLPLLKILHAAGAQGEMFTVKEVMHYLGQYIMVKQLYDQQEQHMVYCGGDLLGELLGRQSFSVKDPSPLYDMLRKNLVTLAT

T1 sequence (Q9NZQ7 18-134, stated change not applied, one chain of several): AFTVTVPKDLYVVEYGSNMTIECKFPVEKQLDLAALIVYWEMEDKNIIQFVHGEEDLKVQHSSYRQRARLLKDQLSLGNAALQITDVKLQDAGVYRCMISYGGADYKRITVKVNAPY
T2 sequence (Q9NZQ7 18-134, one chain of several): as the sequence (Q9NZQ7 18-134, stated change not applied, one chain of several) above

## Cc1c(COc2cc(OCc3cccc(C#N)c3)c(CN3C[C@H](O)C[C@@H]3C(=O)O)cc2Cl)cccc1-c1ccc2c(c1)OCCO2 [BMS-1166]
[1]; (N66A)PD-1/PD-L1 complex, molar ratio 1:1
  Recovery of PD-1 signals in 1D 1H-NMR spectra: full recovery of the PD-1 signals
[1]; equimolar amount of compound
  Dissociation of (N66A)PD-1/PD-L1 complex (recovery of 2D HMQC signals): full recovery of 2D HMQC spectrum
[2]
  Dissociation of human PD-1/PD-L1 complex in vitro: efficiently dissociates the human PD-1/PD-L1 complex in vitro
[3]
  Activation of effector T cells: activates the effector T cells

## CC(C)(C)NC(=O)C(c1c(C(=O)O)[nH]c2cc(Cl)ccc12)N(C=O)Cc1cc(F)cc(F)c1F (centres unmarked) [compound 4]
[4]
  Ki: 27 µM
